From patent publication US10118935B2, “Melampomagnolide B dimers” (priority 2014, dated 2018)
Read-outs that look alike come from different tables or passages of the source.

Key:
[1] = tested on: M9ENL AML cell lines; assay: cells; settings: Table 5; cell line not given
[2] = tested on: M9ENL AML cell lines; settings: for EC50: Table 5, cell line not given; for CC50: read-out: LC50, M9ENL AML cell lines, after 24 hours of drug exposure; for potency relative to parthenolide and MMB: M9 ENL cell lines
[3] = tested on: AML cell line AML 123009; settings: for cytotoxicity relative to PTL: AML 123009, FIG. 6; for EC50: read-out: Viability EC50, AML cell line 123009

CN(C)CC1C(=O)O[C@H]2[C@H]1CC/C(COC(=O)NCCCCCCCCNC(=O)OC/C1=C/CC[C@@]3(C)O[C@H]3[C@H]3OC(=O)C(CN(C)C)[C@@H]3CC1)=C\CC[C@@]1(C)O[C@@H]21 (single isomer, unassigned) [JVM 3-62A]
EC50 [1]: 1300 nM

CN(C)CC1C(=O)O[C@H]2[C@H]1CC/C(COC(=O)NCCCCCCCCNC(=O)OC/C1=C/CC[C@@]3(C)O[C@H]3[C@H]3OC(=O)C(CN(C)C)[C@@H]3CC1)=C\CC[C@@]1(C)O[C@@H]21 (single isomer, unassigned) [JVM 3-62B]
EC50 [2]: 1200 nM

C=C1C(=O)O[C@H]2[C@H]1CC/C(COC(=O)OCCC(CCOC(=O)OC/C1=C/CC[C@@]3(C)O[C@H]3[C@H]3OC(=O)C(=C)[C@@H]3CC1)O[Si](C)(C)C(C)(C)C)=C\CC[C@@]1(C)O[C@@H]21 (stereo partly drawn) [BS-3-14]
EC50 [1]: 1110 nM

C=C1C(=O)O[C@H]2[C@H]1CC/C(COC(=O)NCCC(O)CCNC(=O)OC/C1=C/CC[C@@]3(C)O[C@H]3[C@H]3OC(=O)C(=C)[C@@H]3CC1)=C\CC[C@@]1(C)O[C@@H]21 (stereo partly drawn) [BS-3-24]
EC50 [1]: 9030 nM

C=C1C(=O)O[C@H]2[C@H]1CC/C(COC(=O)OCCC(CCOC(=O)OC/C1=C/CC[C@@]3(C)O[C@H]3[C@H]3OC(=O)C(=C)[C@@H]3CC1)OCCCCCCCCCCn1cc(CNC(=O)CCCCC3SCC4NC(=O)NC43)nn1)=C\CC[C@@]1(C)O[C@@H]21 (stereo partly drawn) [BS-4-38a]
EC50 [1]: 20000 nM

C=C1C(=O)O[C@H]2[C@H]1CC/C(COC(=O)OCCC(CCO)OCCCCCCCCCCn1cc(CNC(=O)CCCCC3SCC4NC(=O)NC43)nn1)=C\CC[C@@]1(C)O[C@@H]21 (stereo partly drawn) [BS-4-38b]
EC50 [1]: 30000 nM

CN(C)CC1C(=O)O[C@H]2[C@H]1CC/C(COC(=O)OC/C1=C/CC[C@@]3(C)O[C@H]3[C@H]3OC(=O)C(CN(C)C)[C@@H]3CC1)=C\CC[C@@]1(C)O[C@@H]21 (stereo partly drawn) [JVM 3-55 B]
EC50 [1]: 5100 nM

C=C1C(=O)OC2C1CCC(COC(=O)NCCCNC(=O)OCC1=CCCC3(C)OC3C3OC(=O)C(=C)C3CC1)=CCCC1(C)OC21 [JVM 3-55, bis(((1aR,7aS,10aS,10bS,E)-1a-Methyl-8-methylene-9-oxo-1a,2,3,6,7,7a,8,9,10a,10b-decahydrooxireno[2′,3′:9,10]cyclodeca[1,2-b]furan-5-yl)methyl)propane-1,3-diyldicarbamate]
CC50 [2]: 560 nM

C=C1C(=O)OC2C1CCC(COC(=O)NCCCCCCCNC(=O)OCC1=CCCC3(C)OC3C3OC(=O)C(=C)C3CC1)=CCCC1(C)OC21 [JVM 3-58, bis(((1aR,7aS, 10aS, 10bS, E)-1a-Methyl-8-methylene-9-oxo-1a,2,3,6,7,7a,8,9,10a,10b-decahydrooxireno[2′,3′:9,10]cyclodeca[1,2-b]furan-5-yl)methyl)heptane-1,7-diyldicarbamate]
CC50 [2]: 1200 nM

C=C1C(=O)OC2C1CCC(COC(=O)NCCCCCCCCCNC(=O)OCC1=CCCC3(C)OC3C3OC(=O)C(=C)C3CC1)=CCCC1(C)OC21 [JVM 3-61, bis(((1aR,7aS, 10aS, 10bS, E)-1a-Methyl-8-methylene-9-oxo-1a,2,3,6,7,7a,8,9,10a, 1b-decahydrooxireno[2′,3′:9,10]cyclodeca[1,2-b]furan-5-yl)methyl)nonane-1,9-diyldicarbamate]
CC50 [2]: 1800 nM

C=C1C(=O)O[C@H]2[C@H]1CC/C(COC(=O)NCCCCCCCCNCC1C(=O)O[C@H]3[C@H]1CC/C(COC(=O)NCCCCCCCCNC(=O)OC/C1=C/CC[C@@]4(C)O[C@H]4[C@H]4OC(=O)[C@@H](CNCCCCCCCCNC(=O)OC/C5=C/CC[C@@]6(C)O[C@H]6[C@H]6OC(=O)C(=C)[C@@H]6CC5)[C@@H]4CC1)=C\CC[C@@]1(C)O[C@@H]31)=C\CC[C@@]1(C)O[C@@H]21 (stereo partly drawn) [JVM 3-62-1]
EC50 [1]: 1700 nM

C[C@@]12CC/C=C3\CC[C@@H]4[C@H](OC(=O)[C@H]4CNCCCCCCCCNC[C@@H]4C(=O)O[C@H]5[C@H]4CC/C(=C\CC[C@@]4(C)O[C@@H]54)COC(=O)NCCCCCCCCNC(=O)OC3)[C@@H]1O2 [JVM 3-62-2]
EC50 [1]: 38000 nM

C=C1C(=O)OC2C1CCC(COC(=O)NCCCCCCNC(=O)OCC1=CCCC3(C)OC3C3OC(=O)C(=C)C3CC1)=CCCC1(C)OC21 [JVM 3-64, bis(((1aR,7aS,10aS,10bS,E)-1a-Methyl-8-methylene-9-oxo-1a,2,3,6,7,7a,8,9,10a,10b-decahydrooxireno[2′,3′:9,10]cyclodeca[1,2-b]furan-5-yl)methyl)hexane-1,6-diyldicarbamate]
CC50 [2]: 340 nM

C=C1C(=O)O[C@H]2[C@H]1CC/C(COC(=O)NCCCCCCCCCCNC(=O)OC/C1=C/CC[C@@]3(C)O[C@H]3[C@H]3OC(=O)C(=C)[C@@H]3CC1)=C\CC[C@@]1(C)O[C@@H]21 [JVM 3-65, bis(((1aR,7aS,10aS, 10bS,E)-1a-Methyl-8-methylene-9-oxo-1a,2,3,6,7,7a,8,9,10a,10b-decahydrooxireno[2,3′:9,10]cyclodeca[1,2-b]furan-5-yl)methyl)decane-1,10-diyldicarbamate]
CC50 [2]: 1600 nM

C=C1C(=O)OC2C1CCC(C(=O)NCCCCCCCCNC(=O)C1=CCCC3(C)OC3C3OC(=O)C(=C)C3CC1)=CCCC1(C)OC21 [JVM 3-78, (1aR,1a′R,4E,4′E,7aS,7a′S, 10aS, 10bS, 10a′S, 10b′S)—N,N′-(octane-1,8-diyl)bis(1a-methyl-8-methylene-9-oxo-1a,2,3,6,7,7a,8,9,10a,10b-decahydrooxireno[2′,3′:9,10]cyclodeca[1,2-b]furan-5-carboxamide)]
potency relative to parthenolide and MMB [2]: more potency than parthenolide and MMB

C=C1C(=O)OC2C1CCC(C(=O)NCCCCCCCCCNC(=O)C1=CCCC3(C)OC3C3OC(=O)C(=C)C3CC1)=CCCC1(C)OC21 [JVM 3-82, (1aR,1a′R,4E,4′E,7aS,7a′S,10aS,10bS,10a′S,10b′S)—N,N′-(nonane-1,9-diyl)bis(1a-methyl-8-methylene-9-oxo-1a,2,3,6,7,7a,8,9,10a,10b-decahydrooxireno[2 ′,3 ′9,10]cyclodeca[1,2-b]furan-5-carboxamide)]
potency relative to parthenolide and MMB [2]: more potency than parthenolide and MMB

C=C1C(=O)O[C@H]2[C@H]1CC/C(C(=O)NCCCCCCCCCCNC(=O)/C1=C/CC[C@@]3(C)O[C@H]3[C@H]3OC(=O)C(=C)[C@@H]3CC1)=C\CC[C@@]1(C)O[C@@H]21 [JVM 3-83, (1aR,1a′R,4E,4′E,7aS,7a′S,10aS, 10bS, 10a′S, 10b′S)—N,N′-(decane-1,10-diyl)bis(1a-methyl-8-methylene-9-oxo-1a,2,3,6,7,7a,8,9,10a,10b-decahydrooxireno[2′,3′:9,10]cyclodeca[1,2-b]furan-5-carboxamide)]
potency relative to parthenolide and MMB [2]: more potency than parthenolide and MMB
EC50 [2]: 2800 nM
cytotoxicity relative to PTL [3]: enhanced cytotoxicity relative to PTL
EC50 [3]: 2800 nM

C=C1C(=O)OC2C1CCC(C(=O)NCCCCCCCNC(=O)C1=CCCC3(C)OC3C3OC(=O)C(=C)C3CC1)=CCCC1(C)OC21 [JVM 3-84, (1aR,1a′R,4E,4′E,7aS,7a′S,10aS,10bS,10a′S,10b′S)—N,N′-(heptane-1,7-diyl)bis(1a-methyl-8-methylene-9-oxo-1a,2,3,6,7,7a,8,9,10a,10b-decahydrooxireno[2′,3′:9,10]cyclodeca[1,2-b]furan-5-carboxamide)]
potency relative to parthenolide and MMB [2]: more potency than parthenolide and MMB

C=C1C(=O)OC2C1CCC(COC(=O)OCCCCOC(=O)OCC1=CCCC3(C)OC3C3OC(=O)C(=C)C3CC1)=CCCC1(C)OC21 [JVM 3-91A, butane-1,4-diylbis(((1aR,7aS,10aS,10bS,E)-1a-methyl-8-methylene-9-oxo-1a,2,3,6,7,7a, 8,9,10a,10b-decahydrooxireno[2′,3′:9,10]cyclodeca[1,2-b]furan-5-yl)methyl)dicarbonate]
EC50 [2]: 930 nM
cytotoxicity relative to PTL [3]: enhanced cytotoxicity relative to PTL
EC50 [3]: 930 nM

C=C1C(=O)O[C@H]2[C@H]1CC/C(COC(=O)CC(=O)OC/C1=C/CC[C@@]3(C)O[C@H]3[C@H]3OC(=O)C(=C)[C@@H]3CC1)=C\CC[C@@]1(C)O[C@@H]21 [JVM 3-99, bis(((1aR,7aS,10aS,10bS,E)-1a-methyl-8-methylene-9-oxo-1a,2,3,6,7,7a,8,9,10a, 1b-decahydrooxireno[2′,3′:9,10]cyclodeca[1,2-b]furan-5-yl)methyl)malonate]
EC50 [2]: 1000 nM
cytotoxicity relative to PTL [3]: enhanced cytotoxicity relative to PTL
EC50 [3]: 1000 nM

C=C1C(=O)O[C@H]2[C@H]1CC/C(Cn1cc(-c3cccc(-c4cn(C/C5=C/CC[C@@]6(C)O[C@H]6[C@H]6OC(=O)C(=C)[C@@H]6CC5)nn4)c3)nn1)=C\CC[C@@]1(C)O[C@@H]21 [JVM 4-41A]
EC50 [1]: 2300 nM

C=C1C(=O)O[C@H]2[C@H]1CC/C(Cn1cc(CNCc3cn(C/C4=C/CC[C@@]5(C)O[C@H]5[C@H]5OC(=O)C(=C)[C@@H]5CC4)nn3)nn1)=C\CC[C@@]1(C)O[C@@H]21 [JVM 4-44]
EC50 [1]: 51600 nM

C=C1C(=O)O[C@H]2[C@H]1CC/C(Cn1cc(CCCc3cn(C/C4=C/CC[C@@]5(C)O[C@H]5[C@H]5OC(=O)C(=C)[C@@H]5CC4)nn3)nn1)=C\CC[C@@]1(C)O[C@@H]21 [JVM 4-51]
EC50 [1]: 4000 nM
